Here are results for 3 molecules from patent US7700633B2, “Organic compounds” (Novartis AG, priority 2005, dated 2010).

One data set has as its target T1, human PTP-1B (Homo sapiens, UniProt P18031).
T1 construct: recombinant human PTP-1B[1-298] or PTP-1B[1-322]
T1 sequence (P18031 1-298 limits assumed): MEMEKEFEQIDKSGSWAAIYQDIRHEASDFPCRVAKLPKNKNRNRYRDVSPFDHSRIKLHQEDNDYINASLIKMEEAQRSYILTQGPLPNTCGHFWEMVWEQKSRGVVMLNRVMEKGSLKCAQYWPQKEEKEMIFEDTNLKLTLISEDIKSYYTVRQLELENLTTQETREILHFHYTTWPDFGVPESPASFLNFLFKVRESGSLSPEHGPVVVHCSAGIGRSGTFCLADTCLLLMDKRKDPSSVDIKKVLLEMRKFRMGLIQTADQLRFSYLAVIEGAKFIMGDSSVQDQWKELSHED
The experiment in a line: PTP-1B inhibitory activity in vitro (IC50). Type of data set: biochemical. How it is done:
Assessment of human PTP-1B (hPTP-1B) activity in the presence of various agents is determined by measuring the amount of inorganic phosphate released from a phosphopeptide substrate using a 96-well microtiter plate format. The assay (100 μL) is performed in an assay buffer comprised of 50 mM TRIS (pH 7.5), 50 mM NaCl, 3 mM DTT at ambient temperature. The assay is typically performed in the presence of 0.4% dimethyl sulfoxide (DMSO). However, concentrations as high as 10% are used with certain poorly soluble compounds. […] Inorganic phosphate, a product of the enzyme reaction, is quantitiated after 15 min as the green color resulting from complexing with the Malichite reagent and is determined as an A620 using a Molecular Devices (Sunnyvale, Calif.) SpectraMAX Plus spectrophotometer. […] Activity is defined as the net change in absorbance resulting from the activity of the uninhibited hPTP-1B[1-411] minus that of a tube with acid-inactivated hPTP-1B[1-411]. […]
Alternatively, the assessment of human PTP-1B activity in the presence of various agents may be determined by measuring the hydrolysis products of known competing substrates. For example, cleavage of substrate para-nitrophenylphosphate (pNPP) results in the release of the yellow-colored para-nitrophenol (pNP) which can be monitored in real time using a spectrophotometer. […]

Molecules are shown by their SMILES.

What is called melting point is the temperature of the solid-liquid transition. In turn, `COc1cc2cc(N3CC(=O)NS3(=O)=O)c(O)cc2oc1=O` [Example 70, 5-(7-Hydroxy-3-methoxy-2-oxo-2H-chromen-6-yl)-1,1-dioxo-1,2,5-thiadiazolidin-3-one] displayed a melting point of 226 to 228 °C.
By IC50 is commonly meant the concentration at which inhibition is half-maximal. Read a low IC50 as inhibition by little substance. For the molecule `O=C1CN(c2cc3cc(C4CCCC4)ccc3cc2O)S(=O)(=O)N1` [Example No. 22, 5-(7-Cyclopentyl-3-hydroxynaphthalen-2-yl)-1,1-dioxo-1,2,5-thiadiazolidin-3-one], at human PTP-1B, the IC50 was found to be 85 nM.
As to `O=C1CN(c2cc3cc(C4CCCCC4)ccc3cc2O)S(=O)(=O)N1` [Example No. 23, 5-(7-Cyclohexyl-3-hydroxynaphthalen-2-yl)-1,1-dioxo-1,2,5-thiadiazolidin-3-one], on human PTP-1B, inhibition was half-maximal at 113 nM (IC50).
